Where two headings read alike, the source gives them in different places.
Legend:
SH-SY5Y cells [1] = assay: AK (adenylate kinase) release ToxiLight cytotoxicity assay; note: reference of the scale not given here
SH-SY5Y cells [2] = assay: Nuclear count from microscopy images (cellular growth and toxicity); note: reference of the scale not given here
SH-SY5Y cells [3] = tested on: SH-SY5Y cells; note: reference of the scale not given here
endogenous TFEB = assay: TFEB nuclear translocation, immunocytochemistry high-content imaging; type: cell-based
endogenous TFE3 = assay: TFE3 nuclear translocation, immunocytochemistry high-content imaging; type: cell-based
[4] = PKIS2 primary screening, DQ Red BSA intensity
[5] = PKIS2 primary screening, DQ Red BSA spot count

Row | SMILES | AK (SH-SY5Y cells [1]; PKIS2 primary screening) | Nuclear Count (SH-SY5Y cells [2]; PKIS2 primary screening) | DQ Intensity (SH-SY5Y cells [3]; PKIS2 primary screening) | DQ Spot (SH-SY5Y cells [3]; PKIS2 primary screening) | TFEB % (endogenous TFEB; PKIS2 primary screening) | TFE3 % (endogenous TFE3; PKIS2 primary screening) | AK (SH-SY5Y cells [1]; PKIS2 primary screen) | Nuclear Count (SH-SY5Y cells [2]; PKIS2 primary screen) | DQ Intensity (SH-SY5Y cells [3]; PKIS2 primary screen, DQ Red BSA intensity) | DQ Spot (SH-SY5Y cells [3]; PKIS2 primary screen, DQ Red BSA spot count) | TFEB % (endogenous TFEB; PKIS2 primary screen) | TFE3 % (endogenous TFE3; PKIS2 primary screen) | DQ Intensity (SH-SY5Y cells [3]; [4]) | DQ Spot (SH-SY5Y cells [3]; [5])
1 | CCS(=O)(=O)c1ccc(OC)c(Nc2nccc(-c3c(-c4cccc(NC(=O)c5c(F)cccc5F)c4)nn4ncccc34)n2)c1 [UNC10225342A] | 86.17 | 104.33 | 69.43 | 80.86 | 6.81% | 13.07% |  |  |  |  |  |  |  | 
2 | O=c1cc(N2CCOCC2)nc2n(Cc3ccc(F)c(Cl)c3)ccn12 [UNC10225343A] | 80.61 | 115.81 | 102.25 | 107.68 | 4.66% | 7.68% |  |  |  |  |  |  |  | 
3 | C[C@@H](Oc1cc(-n2cnc3ccc(-c4ccncc4)cc32)sc1C(N)=O)c1ccccc1Cl [UNC10225348A] | 91.16 | 41.11 | 133.73 | 158.98 | 10.36% | 36.52% |  |  |  |  |  |  |  | 
4 | O=C(Nc1c(F)cccc1F)c1cc(C(=O)c2ccccc2F)c[nH]1 [UNC10225351A] |  |  |  |  |  |  | 106.59 | 134.69 | 115.15 | 113.72 | 3.75% | 7.96% |  | 
5 | OCCCNc1nccc(-c2c(-c3cccc(C(F)(F)F)c3)nn3cc(C(F)(F)F)ccc23)n1 [UNC10225352A] | 111.75 | 112.73 | 93.14 | 97.34 | 4.95% | 11.93% |  |  |  |  |  |  |  | 
6 | Cc1ccc(NC(=O)Nc2cc(C(C)(C)C)nn2-c2ccccc2)cc1 [UNC10225353A] | 76.54 | 116.98 | 116.80 | 100.99 | 9.78% | 7.76% |  |  |  |  |  |  |  | 
7 | Cc1ccccc1Cn1ccn2c(=O)cc(N3CCOCC3)nc12 [UNC10225355A] | 91.19 | 89.36 | 95.37 | 115.18 | 2.12% | 15.51% |  |  |  |  |  |  |  | 
8 | Cc1cccc(Nc2nc(N[C@H]3CCNC3)ncc2C(N)=O)c1.Cl [UNC10225356A] | 117.33 | 97.71 | 128.58 | 110.55 | 10.40% | 8.51% |  |  |  |  |  |  |  | 
9 | Cc1cc(-c2c(-c3ccc(F)cc3)ncn2CCCN2CCOCC2)nc(N)n1 [UNC10225357A] | 146.53 | 103.52 | 102.69 | 106.97 | 6.16% | 18.76% |  |  |  |  |  |  |  | 
10 | Clc1ccc(-c2nn3ncccc3c2-c2ccnc(Nc3ccc4c(c3)OCCO4)n2)cc1 [UNC10225358A] | 157.53 | 125.14 | 88.44 | 98.66 | 8.16% | 11.64% |  |  |  |  |  |  |  | 
11 | Cc1ccc(NC(=O)Nc2ccc(Cl)c(C(F)(F)F)c2)cc1-c1ccc(C(=O)Nc2ccncc2)cc1 [UNC10225359A] | 88.88 | 100.74 | 70.67 | 82.92 | 9.28% | 18.34% |  |  |  |  |  |  |  | 
12 | Oc1ccc2ncnc(Nc3ccc(OCc4ccccc4)cc3)c2c1 [UNC10225360A] | 98.47 | 101.58 |  |  | 5.47% | 13.64% |  |  |  |  |  |  | 120.31 | 114.21
13 | CC(C)(C)n1cnc2c(N)ncnc21 [UNC10225362A] | 102.90 | 45.84 | 122.93 | 124.24 | 5.16% | 7.46% |  |  |  |  |  |  |  | 
14 | CC(C)(C)c1ccc(-n2cnc3c(N)ncnc32)cc1 [UNC10225367A] | 79.86 | 71.05 | 128.98 | 104.53 | 8.78% | 12.53% |  |  |  |  |  |  |  | 
15 | Nc1ncc(-c2cccnc2)c2scc(-c3ccc4c(c3)CCN4C(=O)Cc3ccccc3)c12 [UNC10225369A] | 64.72 | 102.35 |  |  | 3.58% | 19.63% |  |  |  |  |  |  | 84.54 | 86.78
16 | CCn1cnc2c(NCc3ccccc3)ncnc21 [UNC10225370A] | 79.45 | 102.90 | 98.37 | 103.57 | 4.85% | 13.91% |  |  |  |  |  |  |  | 
17 | COc1cc2ncn(-c3cc(OCC4CCCO4)c(C(N)=O)s3)c2cc1OC (stereo not drawn) [UNC10225372A] | 162.91 | 102.24 | 86.61 | 87.29 | 6.13% | 10.50% |  |  |  |  |  |  |  | 
18 | CN1CCN(CCCNc2nccc(-c3c(-c4ccc(F)cc4)nn4cc(C(F)(F)F)ccc34)n2)CC1 [UNC10225376A] | 108.97 | 97.99 | 120.10 | 102.44 | 5.73% | 16.03% |  |  |  |  |  |  |  | 
19 | Cl.c1ccc(Cn2cnc3cc(Nc4ncnc5ccccc45)ccc32)cc1 [UNC10225378A] | 86.98 | 84.68 |  |  | 2.97% | 16.85% |  |  |  |  |  |  | 110.75 | 119.25
20 | NS(=O)(=O)c1cccc(-c2ccc3nccc(-c4cccc(S(N)(=O)=O)c4)c3c2)c1 [UNC10225379A] | 131.37 | 79.09 |  |  | 4.73% | 17.04% |  |  |  |  |  |  | 88.37 | 88.03
21 | Fc1ccc(-c2ncn(CCCN3CCOCC3)c2-c2ccccn2)cc1 [UNC10225382A] | 83.54 | 93.57 |  |  | 3.28% | 18.86% |  |  |  |  |  |  | 121.86 | 115.12
22 | COc1cc2ncn(-c3cc(OCc4ccncc4Br)c(C(N)=O)s3)c2cc1OC [UNC10225386A] | 64.35 | 97.54 | 93.85 | 100.07 | 6.47% | 3.25% |  |  |  |  |  |  |  | 
23 | Cc1ccc(NC(=O)Nc2ccc(Cl)cc2)cc1-c1ccc(C(=O)Nc2ccncc2)cc1 [UNC10225388A] | 83.48 | 82.28 | 98.78 | 97.95 | 7.90% | 28.63% |  |  |  |  |  |  |  | 
24 | CCCCCc1nc2c(N)ncnc2n1CCCCC [UNC10225389A] | 96.98 | 110.88 | 103.02 | 109.08 | 4.57% | 10.63% |  |  |  |  |  |  |  | 
25 | CCn1c(-c2nonc2N)nc2c(C#CC(C)(C)O)ncc(OCCCCN)c21.O=C(O)C(F)(F)F.O=C(O)C(F)(F)F [UNC10225393A] | 69.12 | 121.84 | 115.98 | 109.86 | 2.26% | 10.89% |  |  |  |  |  |  |  | 
26 | Cc1ccc(NC(=O)Nc2ccccc2F)cc1-c1ccc(C(=O)Nc2ccncc2)cc1 [UNC10225398A] | 135.60 | 104.03 | 90.99 | 98.29 | 7.18% | 17.53% |  |  |  |  |  |  |  | 
